# Laboratory results reported in PMC9220178, “Preclinical Characterization of Antioxidant Quinolyl Nitrone QN23 as a New Candidate for the Treatment of Ischemic Stroke” (Antioxidants, 2022).
# How the values were obtained:
# Type in all cases: in vivo, rat
# [1] = system: adult male Wistar rats, four-vessel occlusion (4VO) transient forebrain ischemia; test: Neuronal death by Fluoro-Jade B staining after transient global cerebral ischemia (4VO); details: 40 mg/kg i.v. at 0, 1, 3 or 6 h of reperfusion; R5d
# Description: (§1) Transient forebrain ischemia was induced in adult male Wistar rats (10–12 weeks, Charles River, L’Arbresle, France) by the standard four-vessel occlusion (4VO) model previously described. Briefly, animals were anesthetized by intraperitoneal injection of a combination of ketamine, diazepam, and atropine (62.5, 5.0, and 0.25 mg/kg, respectively); positioned in a stereotactic device; and both vertebral arteries were cauterized. The next day, anesthesia was induced with 4% isoflurane and maintained at 2–2.5% isoflurane for carotid artery dissection. After anesthesia withdrawal, the carotid arteries were occluded with an atraumatic vascular clamp to induce brain ischemia. During the entire surgical procedure, temperature was monitored at 2 min intervals and kept at 37 °C. After 15 min of ischemia, the carotid arteries were unclamped for brain reperfusion. The animals were studied after 5 days of reperfusion (R5d), or after 11 weeks of reperfusion (long-term studies), and then they were euthanized under deep anesthesia. Animals from the sham control group were handled in the same way, but without occlusion of the carotid arteries. Ischemic animals were treated with vehicle solution (ethanol/polyethylene glycol 400/saline, 1:300:200 v/v), or with nitrones QN23 or NXY-059 in vehicle solution, as a single injection through the tail vein at the onset of reperfusion. For the therapeutic window experiments, the animals were also treated at reperfusion times 1, 3, and 6 h after ischemia. The treatments were prepared by an independent researcher and administered with concealed allocation. Treatments were administered in a randomized order obtained by a computer-based randomization program. To determine the sample size, a power analysis (http://www.biomath.info/power/ttest.htm, accessed on 12 March 2020) with significance level set at 0.05 and statistical power set at 0.8 (80%) rendered a sample size of <6 subjects per group. A total of 120 ischemic animals (30 animals treated with vehicle, 60 treated with QN23, and 30 treated with NXY-059) and 9 sham control animals were included in these studies. Additionally, 13 animals were excluded from the study: 6 animals were not ischemic and 7 animals died within the 24 h after the surgical procedure (5 vehicles, 1 QN23-treated at 1.0 mg/kg, and 1 QN23-treated at 2.0 mg/kg). The Animal Care Ethics Committee of the Hospital Universitario Ramón y Cajal (Madrid, Spain) authorized all the procedures involving the animal experimentation reported here (authorization number 04/2020). These experiments were performed according to ARRIVE guidelines and the legislation on the protection of animals used for scientific purposes in Spain (RD 53/2013) and the EU (Directive 2010/63/EU). The study was designed and conducted according to the STAIR guidelines regarding physiological monitoring, sample randomization, predefined exclusion criteria, allocation concealment, blinded assessment of outcomes, dose–response definition, and a conflict-of-interest statement.
# (§2) After 5 days of reperfusion (R5d), or at 11 weeks of reperfusion in long-term studies, animals were euthanized by transcardiac perfusion via the left ventricle under deep anesthesia. First, blood was washed out with 200 mL of ice-cold saline medium, followed by fixation with 4% (w/v) paraformaldehyde solution in PBS for brain preservation. Then, the brains were carefully removed from the cranial cavity and placed in 4% (w/v) paraformaldehyde solution in PBS overnight at 4 °C. The next day, the brains were sequentially placed in 10%, 20%, and 30% (w/v) sucrose in PBS until sunken, and finally embedded in Tissue-Tek O.C.T. (Sakura Finetek, Torrance, CA, USA) before freezing at −80 °C. Brain coronal sections containing the hippocampus region were obtained by cryostat sectioning at the level of interaural line +5.7 ± 0.2 mm on Real Capillary Gap microscope slides (Agilent Dako, Santa Clara, CA, USA). […]
# [2] = system: adult male Wistar rats, four-vessel occlusion (4VO) transient forebrain ischemia; test: Neuronal apoptosis by TUNEL assay after transient global cerebral ischemia (4VO); details: 40 mg/kg i.v. at 0, 1, 3 or 6 h of reperfusion; R5d
# Description: as §1, §2
# [3] = system: adult male Wistar rats, four-vessel occlusion (4VO) transient forebrain ischemia; test: Long-term behavioral tests in the Y maze; details: 40 mg/kg i.v. at reperfusion onset, 11 weeks after ischemia
# Description: Long-term assessment of neurological damage after the ischemic episode was performed by the evaluation of the spontaneous exploratory activity (spatial recognition) and spatial memory skills in the Y maze.
# For the assessment of the exploratory activity and spatial recognition, control animals and ischemic animals treated with vehicle, QN23, or NXY-059 were placed in the center of the maze and allowed free exploration for 8 min. An independent researcher blind to the treatment allocation registered the total number of arms that the animal entered indistinctly (arm entries), and the times that the animal explored the three different arms of the maze consecutively (alternations or triads).
# For the assessment of spatial memory, experiments consisted of two trials. For the first trial (training), control and ischemic animals treated with vehicle or QN23 were placed into one of the arms (start arm) and allowed to explore the Y maze for 10 min with one of the arms closed. One hour after the training trial, the animals were returned to the Y maze and the second trial was conducted. The animals were placed in the same start arm as in the training trial, but now with the remaining two arms of the maze available for exploration for 3 min. A researcher blind to the treatment allocation registered the first choice of arm for entry (novel or old).
# [4] = system: adult male Wistar rats, four-vessel occlusion (4VO) transient forebrain ischemia; test: Neurological deficit score (NDS) after global cerebral ischemia (4VO); details: 40 mg/kg i.v.; R5d; times tested 0, 1, 3, 6 h
# Description: Transient forebrain ischemia was induced in adult male Wistar rats (10–12 weeks, Charles River, L’Arbresle, France) by the standard four-vessel occlusion (4VO) model previously described. Briefly, animals were anesthetized by intraperitoneal injection of a combination of ketamine, diazepam, and atropine (62.5, 5.0, and 0.25 mg/kg, respectively); positioned in a stereotactic device; and both vertebral arteries were cauterized. The next day, anesthesia was induced with 4% isoflurane and maintained at 2–2.5% isoflurane for carotid artery dissection. After anesthesia withdrawal, the carotid arteries were occluded with an atraumatic vascular clamp to induce brain ischemia. During the entire surgical procedure, temperature was monitored at 2 min intervals and kept at 37 °C. After 15 min of ischemia, the carotid arteries were unclamped for brain reperfusion. The animals were studied after 5 days of reperfusion (R5d), or after 11 weeks of reperfusion (long-term studies), and then they were euthanized under deep anesthesia. Animals from the sham control group were handled in the same way, but without occlusion of the carotid arteries. Ischemic animals were treated with vehicle solution (ethanol/polyethylene glycol 400/saline, 1:300:200 v/v), or with nitrones QN23 or NXY-059 in vehicle solution, as a single injection through the tail vein at the onset of reperfusion. For the therapeutic window experiments, the animals were also treated at reperfusion times 1, 3, and 6 h after ischemia. The treatments were prepared by an independent researcher and administered with concealed allocation. Treatments were administered in a randomized order obtained by a computer-based randomization program. […]
# After 5 days of post-ischemic reperfusion (R5d), neurological deficits were evaluated in the animals by a researcher blind to the treatment allocation. General status and mobility impairments were quantified according to a scale previously validated in an entire cohort of R5d animals (n = 20). […]
smiles,measurement,setting,value
"CC(C)(C)[N+]([O-])=Cc1ccc(S(=O)(=O)[O-])cc1S(=O)(=O)[O-].[Na+].[Na+] [NXY-059, reference compound]",Neuronal death compared with vehicle,[1],did not reduce neuronal death
same,Apoptosis reduction compared with vehicle,[2],did not produce a significant effect
same,Y maze arm entries (exploratory activity),[3],fewer arm maze entries
same,"Y maze alternations (triads completed), spatial recognition","[3]; vehicle 5.0, control 15.75",5.5
same,Percentage of animals exploring the novel arm as a first choice (spatial memory),"[3]; vehicle 17%, control 75%",50%
same,Therapeutic window: administration time after reperfusion onset with significantly reduced NDS,[4],0 h
